Two compounds from ChEMBL document CHEMBL1155100, “Design and synthesis of novel 3-hydroxy-cyclobut-3-ene-1,2-dione derivatives as thyroid hormone receptor beta (TR-beta) selective ligands” (Bioorg Med Chem Lett, 2008) can be followed below.

Experiment [1] concerns the target T1, Thyroid hormone receptor alpha (Homo sapiens, UniProt P10827).
T1 sequence (P10827 whole entry): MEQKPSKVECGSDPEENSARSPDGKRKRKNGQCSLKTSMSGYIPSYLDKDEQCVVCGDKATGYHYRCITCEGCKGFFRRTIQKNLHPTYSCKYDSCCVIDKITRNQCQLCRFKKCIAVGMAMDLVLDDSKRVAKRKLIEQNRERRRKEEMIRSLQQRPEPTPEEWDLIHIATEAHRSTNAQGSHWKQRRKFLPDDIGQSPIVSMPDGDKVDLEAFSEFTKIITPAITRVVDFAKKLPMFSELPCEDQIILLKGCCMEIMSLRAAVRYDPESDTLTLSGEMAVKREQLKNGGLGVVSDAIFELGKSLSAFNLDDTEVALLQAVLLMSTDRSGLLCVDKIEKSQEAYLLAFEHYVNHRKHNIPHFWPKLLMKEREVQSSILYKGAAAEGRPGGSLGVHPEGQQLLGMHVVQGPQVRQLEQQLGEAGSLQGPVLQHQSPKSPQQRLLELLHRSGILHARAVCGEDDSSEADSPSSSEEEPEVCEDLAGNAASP
Description: Agonist activity at human thyroid hormone receptor alpha expressed in CV1 cells by TRE-luciferase assay. The class given is functional, cell-based, CV-1.

The target of experiment [2] is T2, Thyroid hormone receptor beta (Homo sapiens, UniProt P10828).
T2 sequence (P10828 whole entry): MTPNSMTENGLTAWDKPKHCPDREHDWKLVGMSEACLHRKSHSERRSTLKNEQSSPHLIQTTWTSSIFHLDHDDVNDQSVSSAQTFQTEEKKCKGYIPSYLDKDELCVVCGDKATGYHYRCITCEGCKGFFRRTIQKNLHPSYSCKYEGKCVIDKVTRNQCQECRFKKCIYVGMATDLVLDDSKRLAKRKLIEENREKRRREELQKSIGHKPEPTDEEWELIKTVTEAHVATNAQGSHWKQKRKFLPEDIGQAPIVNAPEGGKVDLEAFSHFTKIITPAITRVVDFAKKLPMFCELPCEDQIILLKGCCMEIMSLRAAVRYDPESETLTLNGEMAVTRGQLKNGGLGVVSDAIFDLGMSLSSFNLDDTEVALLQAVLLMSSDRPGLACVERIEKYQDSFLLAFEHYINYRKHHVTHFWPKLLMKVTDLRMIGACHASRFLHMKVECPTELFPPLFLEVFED

With `CC(C)(C)c1cc(Oc2c(Cl)cc(Nc3c(O)c(=O)c3=O)cc2Cl)ccc1O`, the concentration for a half-maximal effect (EC50) (commonly the concentration at which the effect is half-maximal) in experiment [1] was 1060 nM; in experiment [2] it was 317 nM.

With `CC(C)c1cc(Oc2c(Cl)cc(Nc3c(O)c(=O)c3=O)cc2Cl)ccc1O`, the values for the EC50 in experiment [1] and in experiment [2] were 222 nM and 70 nM, respectively.
